The values below come from patent publication US20240366539A1, “METHODS FOR TREATING AUTISM SPECTRUM DISORDERS” (INSTITUT NATIONAL DE LA SANTÉ ET DE LA RECHERCHE MÉDICALE, priority 2021, published 2024).

For series [1] the following is noted: dose of KBr equivalent to 250 mg/kg NaBr; pilot experiments. The source says: (§1) Also, we assessed the behavioral effects of chronic administration of another bromide salt, KBr.
Series [2] relates to Oprm1^−/− mice. Nature of the series: Behavioral tests of social, repetitive and anxious behavior (oral NaBr, KBr; data not shown). The note with it: mouse, in vivo. The protocol:
(§2) Mice were treated with vehicle (NaCl 0.9%; ip, 10 or 20 ml/kg), NaBr (Sigma-Aldrich, Saint-Quentin Fallavier, France) administered either chronically (once a day, 10, 30, 70, 125, 250 and 500 mg/kg; i.p. or per os, in a volume of 20 ml/kg—except for combination with VU0155041: […]) or acutely (250 mg/kg, 20 ml/kg), KBr (Sigma-Aldrich, Saint-Quentin Fallavier, France; 145 mg/kg; i.p., 20 ml/kg), bumetanide (R&D systems, Minneapolis, USA, 0.5 and 2 mg/kg; i.p., 20 ml/kg) or VU0155041 (Cayman Chemicals, Ann Arbor, USA, once a day, i.p., 1 mg/kg, 10 ml/kg). […] When treatment was given chronically, behavioral testing started 8 days after beginning of daily administration. Treatment was maintained for 8 to 18 consecutive days (see timelines in FIGS. 1 and 4), allowing thorough behavioral phenotyping. On testing days, or when treatment was given acutely, drugs (or vehicle) were administered 30 min before behavioral assays.
as §1

The subject of series [3] is Oprm1^−/− mice. The series is described as follows: Tail-immersion test. Type of series: in vivo, mouse. Conditions: 50° C., NaBr 70 mg/kg, VU0155041 1 mg/kg, alone or combined, chronic. The protocol: as §2
Tail-immersion test. Nociceptive thresholds were assessed by immersing the tail of the mice (5 cm from the tip) successively into water baths at 48° C., 50° C. and 52° C. The latency to withdraw the tail was measured at each temperature, with a cutoff of 10 s.

The subject of series [4] is Oprm1^−/− mice. The series is described as follows: Three-chamber social preference test. Type of series: in vivo, mouse. The protocol: as §2
Three-chamber social preference test. The test apparatus consisted of a transparent acrylic box (exterior walls blinded with black plastic film); partitions divided the box into three equal chambers (40×20×22.5 cm). Two sliding doors (8×5 cm) allowed transitions between chambers. Cylindrical wire cages (18×9 cm, 0.5 cm diameter-rods spaced 1 cm apart) were used to contain the mouse interactor and object (soft-toy mouse). The test was performed in low-light conditions (15 lx) to minor anxiety. Stimulus wild-type mice were habituated to confinement in wire cages for 2 days before the test (20 min/day). On testing day, the experimental animal was introduced to the middle chamber and allowed to explore the whole apparatus for a 10-min habituation phase (wire cages empty) after the sliding doors were raised. The experimental mouse was then confined back in the middle-chamber while the experimenter introduced an unfamiliar wild type age and sex-matched animal into a wire cage in one of the side-chambers and a soft toy mouse (8×10 cm) in the second wire cage as a control for novelty. Then the experimental mouse was allowed to explore the apparatus for a 10-min interaction phase. The time spent in each chamber, the time spent in nose contact with each wire cage (empty: habituation; containing a mouse or a toy: interaction), as well as the number of these nose contacts were scored a posteriori on video recordings using an ethological keyboard (Labwatcher®, View Point, Lyon, France) by trained experimenters. […] The relative position of stimulus mice (versus toy) was counterbalanced between groups.

Series [5] has as its system Oprm1^−/− mice. The series is described as follows: Y-maze exploration. Type of series: in vivo, mouse. The procedure:
as §2
Y-maze exploration. Spontaneous alternation behavior was used to assess perseverative behavior (65-67). Each Y-maze consisted of three connected Plexiglas arms (15×15×17 cm) covered with distinct wall patterns (15 lx). Floors were covered with lightly sprayed fresh sawdust to limit anxiety. Each mouse was placed at the center of a maze and allowed to freely explore this environment for 5 min. The pattern of entries into each arm was quoted on video-recordings. Spontaneous alternations (SPA), i.e. successive entries into each arm forming overlapping triplet sets, alternate arm returns (AAR) and same arm returns (SAR) were scored, and the percentage of SPA, AAR and SAR was calculated as following: total/(total arm entries−2)*100.

Series [6] deals with Oprm1^−/− mice. The series is described as follows: Direct social interaction test. Type of series: in vivo, mouse. Conditions: for social interaction in wild-type controls: Oprm1+/+ mice. The procedure:
as §2
When assessing effects of chronic administration, experiments were performed successively (timelines in FIGS. 1 and 4) (51, 60). Testing order was chosen to minimize the incidence of anxiety on later assays. Direct social interaction and novelty suppressed feeding were performed in 4 equal square arenas (open fields, 50×50 cm) separated by 35 cm-high opaque grey Plexiglas walls over a white Plexiglas platform (View Point, Lyon, France). Stimulus mice used for the three-chamber test were 8-14-week-old grouped-housed male or female wild-type mice, socially naive to the experimental animals.
Direct social interaction test. On testing day, a pair of unfamiliar mice (not cage mates, age-, sex- and treatment-matched) was introduced in each arena for 10 min (15 lx). Each arena received a black plastic floor (transparent to infrared). […] The mean duration of nose and paw contacts was calculated from previous data (61-63).

For a further series, the system named is rodent models of ASD. Conditions: preclinical studies; cited from earlier work.
In series [7] the test system is Oprm1^−/− mice. Nature of the series: Novelty-suppressed feeding. Type of series: in vivo, mouse. The note with it: chronic NaBr (since the lowest dose tested) or bumetanide. The procedure:
as §2
Novelty-suppressed feeding. Novelty-suppressed feeding (NSF) was measured in 24-hr food-deprived mice, isolated in a standard housing cage for 30 min before individual testing. Three pellets of ordinary lab chow were placed on a white tissue in the center of each arena, lit at 60 lx. Each mouse was placed in a corner of an arena and allowed to explore for a maximum of 15 min. Latency to feed was measured as the time necessary to bite a food pellet. Immediately after an eating event, the mouse was transferred back to home cage (free from cage-mates) and allowed to feed on lab chow for 5 min. Food consumption in the home cage was measured.

Series [8] deals with Oprm1^−/− mice. Nature of the series: Motor stereotypies. Type of series: in vivo, mouse. The protocol: as §2
Motor stereotypies. To detect motor stereotypies in mutant versus wild-type animals, mice were individually placed in clear standard home cages (21×11×17 cm) filled with 3-cm deep fresh sawdust for 10 min (64). Light intensity was set at 30 lux. Trained experimenters scored numbers of head shakes, as well as rearing, burying, grooming, circling episodes and total time spent burying by direct observation.

Another series has as its system patients. The note with it: cited from earlier work.
Series [9] deals with Oprm1^−/− mice. Nature of the series: Marble-burying. Type of series: in vivo, mouse. The note with it: Oprm1−/− mice; chronic NaBr 10-500 mg/kg or bumetanide 0.5 and 2 mg/kg. The procedure: as §2
Marble-burying. Marble burying was used as a measure of perseverative behavior (68). Mice were introduced individually in transparent cages (21×11×17 cm) containing 20 glass marbles (diameter: 1.5 cm) evenly spaced on 4-cm deep fresh sawdust. To prevent escapes, each cage was covered with a filtering lid. Light intensity in the room was set at 40 lux. The animals were removed from the cages after 15 min, and the number of marbles buried more than half in sawdust was quoted.

Setting [10] is: Oprm1−/− mice, NaBr 70 mg/kg, VU0155041 1 mg/kg, alone or combined, once daily, chronic.
Where [11] appears, read: Oprm1−/− mice, chronic NaBr 10-500 mg/kg or bumetanide 0.5 and 2 mg/kg.
Setting [12] is: chronic NaBr 10-500 mg/kg or bumetanide 0.5 and 2 mg/kg.
[13] abbreviates: chronic NaBr (since lowest dose, 10 mg/kg) or bumetanide 0.5 and 2 mg/kg.
Setting [14] is: Oprm1−/− mice, chronic once daily, NaBr 10-500 mg/kg (effect from 125 mg/kg) or bumetanide 0.5 and 2 mg/kg, D9.
Where [15] appears, read: Oprm1−/− mice, one week after cessation of chronic treatment (NaBr over 70 mg/kg, highest doses; bumetanide depending on the dose).

Turning to `[Br-].[K+]` [KBr, potassium bromide], in series [1], the toxicity entry is “toxic”. Further, in the series with Oprm1^−/− mice [2], the “social, repetitive and anxious behavior, compared with NaBr treatment” value is “fully replicated, if not exceeded, by KBr”.
In the case of `O=C(Nc1cc(Cl)cc(Cl)c1)C1CCCC[C@H]1C(=O)O` (stereo partly shown) [VU0155041], the “flicking latency (nociceptive threshold)” value in the series on Oprm1^−/− mice [3] is “ineffective”. Moreover, the “frequency of nose contacts with the mouse versus the toy” value in the series with Oprm1^−/− mice [4] (NaBr 70 mg/kg or VU0155041 1 mg/kg, once daily, chronic) is “sufficient to restore more frequent nose contacts with the mouse versus the toy”. Also, the “duration of nose contacts with the mouse versus the toy” value in the series on Oprm1^−/− mice [4] (NaBr 70 mg/kg, VU0155041 1 mg/kg, alone or combined, once daily, chronic) is reported as “increased the duration of nose contacts with the mouse to that of the toy”. In the series on Oprm1^−/− mice [5] (chronic VU0155041 1 mg/kg), the “perseverative same arm returns” value is listed as “sufficient to suppress perseverative same arm returns”. In addition, in the series with Oprm1^−/− mice [6] (setting [10]), the “duration of nose contacts” value is on record as “partially rescued the duration of their nose contacts” and the “grooming episodes after social contact” value is reported as “suppressed grooming episodes after a social contact”. Moreover, in the series on Oprm1^−/− mice [6] (liminal dose of VU0155041 (1 mg/kg i.p.)), the “effect in the social interaction test, pilot experiment” value is given as “no detectable effect in the social interaction test”.
With `NC[C@H](CC(=O)O)c1ccc(Cl)cc1` [arbaclofen], in the series with rodent models of ASD, the “autistic-like behaviors / phenotype in animal models” value is “improve autistic-like behaviors in animal models”.
Consider `CCCCNc1cc(C(=O)O)cc(S(N)(=O)=O)c1Oc1ccccc1` [bumetanide], for which, in the series with rodent models of ASD, the “autistic-like behaviors / phenotype in animal models” value is recorded as “improve autistic-like phenotype in rodent models of ASD”. For the same molecule, in the series with Oprm1^−/− mice [7] (Oprm1−/− mice), the latency to eat entry is “had no detectable effect on either latency to eat”. In addition, in the series on Oprm1^−/− mice [7] (both mouse lines), the food intake entry was “had no detectable effect”. In the series on Oprm1^−/− mice [8] (setting [11]), the “number of head shakes” value is “suppressed circling and head shakes in mutant mice”; the stereotypic circling episodes entry is “suppressed circling and head shakes in mutant mice”. Further, in the series with Oprm1^−/− mice [8] (both mouse lines (Oprm1−/− and Oprm1+/+), chronic NaBr or bumetanide), the “number of rearing episodes” value is reported as “reduced the number of rearing episodes in both mouse lines”. In addition, in the series on patients, the “autistic behavior in small cohorts of patients” value is “relieve autistic behavior in small cohorts of patients” and the “clinical benefit in a larger clinical trial” value is reported as “failed to be confirmed in a larger clinical trial, except for a reduction of repetitive behavior”. Besides, in the series on Oprm1^−/− mice [4] (setting [12]), the social preference ratio result was “significant but partial recovery of social preference ratio”. Also, in the series on Oprm1^−/− mice [4] (setting [13]), the “duration of nose contacts with the mouse versus the toy” value was “dose-dependently increased the duration of nose contacts with the mouse, but failed to reduce the duration of nose contacts with the toy” and the “number of nose contacts with the mouse versus the toy” value is listed as “at the lowest dose restored a preference for making more frequent nose contacts with the mouse over the toy”. In addition, in the series on Oprm1^−/− mice [5] (setting [12]), the “perseverative same arm returns” value is recorded as “globally failed to suppress those”. Also, in the series with Oprm1^−/− mice [6] (chronic once daily, NaBr 10-500 mg/kg or bumetanide 0.5 and 2 mg/kg), the “social interaction in wild-type controls” value is “showed deleterious effects on social interaction parameters in WT controls”. Moreover, in the series on Oprm1^−/− mice [6] (chronic once daily, NaBr 10-500 mg/kg or bumetanide 0.5 and 2 mg/kg, listed as Bumetanide), the “social interaction in wild-type controls” value is “at the highest dose, it impaired social interaction in wild-type controls”. Besides, in the series on Oprm1^−/− mice [6] (Oprm1−/− mice, chronic once daily i.p., NaBr 10-500 mg/kg or bumetanide 0.5 and 2 mg/kg, D9), the social interaction deficit entry is on record as “had only partial effects”. Also, the “number of nose contacts” value in the series on Oprm1^−/− mice [6] (Oprm1−/− mice, chronic once daily, NaBr 10-500 mg/kg (effect from 125 mg/kg) or bumetanide 0.5 and 2 mg/kg (effect at low dose), D9) is “increased the number of nose contacts”. Further, in the series with Oprm1^−/− mice [6] (setting [14]), the “mean duration of nose contacts” value is “failed to increase significantly the duration of nose contacts”, the “mean duration of paw contacts” value is “failed to increase significantly” and the “number of paw contacts” value is listed as “failed to increase significantly”. Further, the “grooming after social contact” value with Oprm1^−/− mice [6] (Oprm1−/− mice, chronic once daily, NaBr 10-500 mg/kg or bumetanide 0.5 and 2 mg/kg, D9) was “suppressed grooming episodes, notably those occurring after social contact, since the lowest dose tested”. In the series with Oprm1^−/− mice [6] (setting [15]), the “duration of nose contacts” value is reported as “beneficial effects of bumetanide were still detectable” and the “grooming after social contact” value is given as “still detectable”. In the series with Oprm1^−/− mice [6] (chronic once daily, NaBr 10-500 mg/kg (both mouse lines) or bumetanide (at low dose), D9), the “number of following episodes” value is “increased”. In the series with Oprm1^−/− mice [9], the excessive marble burying entry is reported as “failed to suppress excessive marble burying in Oprm1^−/− mice”.
